Measured values reported in patent US12209087B2, “AKT1 modulators” (Alterome Therapeutics, Inc., priority 2022, dated 2025).

Target: T1, full length AKT E17K (Homo sapiens, UniProt P31749, E17K)
T1 construct: host or cells: HEK-293 (ATCC CRL-1573)
Test: NanoBRET Target Engagement (TE) Assay
Assay type: cell-based
Conditions: competitive tracer displacement in living cells, read-out: AKT1 E17K IC50
Outline: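 Compound and tracer incubated 2 h before luminescence at donor 450 nm and acceptor 600 nm, with extracellular signal inhibited. EC50 by sigmoidal variable-slope regression.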

T1 sequence (P31749 whole entry E17K): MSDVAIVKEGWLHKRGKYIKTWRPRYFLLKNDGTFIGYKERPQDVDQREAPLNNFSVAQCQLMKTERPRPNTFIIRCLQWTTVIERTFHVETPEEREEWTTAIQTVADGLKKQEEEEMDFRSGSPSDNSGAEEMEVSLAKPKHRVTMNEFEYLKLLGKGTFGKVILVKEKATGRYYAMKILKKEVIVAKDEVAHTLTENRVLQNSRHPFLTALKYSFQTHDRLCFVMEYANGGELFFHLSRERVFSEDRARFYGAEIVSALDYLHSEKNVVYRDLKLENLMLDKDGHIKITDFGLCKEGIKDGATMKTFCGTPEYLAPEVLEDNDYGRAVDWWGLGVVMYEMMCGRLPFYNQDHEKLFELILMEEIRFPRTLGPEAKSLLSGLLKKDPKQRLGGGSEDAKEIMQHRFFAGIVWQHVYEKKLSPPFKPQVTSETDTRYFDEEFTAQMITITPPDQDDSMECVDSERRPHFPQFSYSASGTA

SMILES	IC50 [nM]
N#Cc1cccc(C(=O)N2CCN(Cc3ccc(-n4c(-c5cccnc5N)nc5cccnc54)cc3)CC2)n1 [Example 69, 6-(4-(4-(2-(2-Aminopyridin-3-yl)-3H-imidazo[4,5-b]pyridin-3-yl)benzyl)piperazine-1-carbonyl)picolinonitrile]	600 to 10000
N#Cc1nnccc1C(=O)NC1CCN(Cc2ccc(-n3c(-c4cccnc4N)nc4ccc(-c5ccccc5)nc43)cc2)CC1 [Example 71, N-(1-(4-(2-(2-Aminopyridin-3-yl)-5-phenyl-3H-imidazo[4,5-b]pyridin-3-yl)benzyl)piperidin-4-yl)-3-cyanopyridazine-4-carboxamide]	15 to 60
N#Cc1cncnc1C(=O)NC1CCN(Cc2ccc(-n3c(-c4cccnc4N)nc4ccc(-c5ccccc5)nc43)cc2)CC1 [Example 73, N-(1-(4-(2-(2-Aminopyridin-3-yl)-5-phenyl-3H-imidazo[4,5-b]pyridin-3-yl)benzyl)piperidin-4-yl)-5-cyanopyrimidine-4-carboxamide]	15 to 60
N#Cc1cncc(NC2CCN(Cc3ccc(-n4c(-c5cccnc5N)nc5cccnc54)cc3)CC2)c1 [Example 74, 5-((1-(4-(2-(2-Aminopyridin-3-yl)-3H-imidazo[4,5-b]pyridin-3-yl)benzyl)piperidin-4-yl)amino)nicotinonitrile]	600 to 10000
N#Cc1ccnc(NC2CCN(Cc3ccc(-n4c(-c5cccnc5N)nc5cccnc54)cc3)CC2)c1 [Example 75, 2-((1-(4-(2-(2-Aminopyridin-3-yl)-3H-imidazo[4,5-b]pyridin-3-yl)benzyl)piperidin-4-yl)amino)isonicotinonitrile]	600 to 10000
N#Cc1cncc(NC2CCN(Cc3ccc(-n4c(-c5cccnc5N)nc5cccnc54)cc3)CC2)n1 [Example 76, 6-((1-(4-(2-(2-Aminopyridin-3-yl)-3H-imidazo[4,5-b]pyridin-3-yl)benzyl)piperidin-4-yl)amino)pyrazine-2-carbonitrile]	600 to 10000
N#Cc1ccnc(NC2CCN(Cc3ccc(-n4c(-c5cccnc5N)nc5cccnc54)cc3)CC2)n1 [Example 77, 2-((1-(4-(2-(2-Aminopyridin-3-yl)-3H-imidazo[4,5-b]pyridin-3-yl)benzyl)piperidin-4-yl)amino)pyrimidine-4-carbonitrile]	60 to 600
N#Cc1cncc(C(=O)N2CCN(Cc3ccc(-n4c(-c5cccnc5N)nc5cccnc54)cc3)CC2)c1 [Example 79, 5-(4-(4-(2-(2-Aminopyridin-3-yl)-3H-imidazo[4,5-b]pyridin-3-yl)benzyl)piperazine-1-carbonyl)nicotinonitrile]	600 to 10000
N#Cc1ccc(C(=O)N2CCN(Cc3ccc(-n4c(-c5cccnc5N)nc5cccnc54)cc3)CC2)nc1 [Example 80, 6-(4-(4-(2-(2-Aminopyridin-3-yl)-3H-imidazo[4,5-b]pyridin-3-yl)benzyl)piperazine-1-carbonyl)nicotinonitrile]	600 to 10000
N#Cc1ccc(C(=O)NC2CCN(Cc3ccc(-n4c(-c5cccnc5N)nc5ccc(-c6ccccc6)nc54)cc3)CC2)nc1 [Example 81, N-(1-(4-(2-(2-Aminopyridin-3-yl)-5-phenyl-3H-imidazo[4,5-b]pyridin-3-yl)benzyl)piperidin-4-yl)-5-cyanopicolinamide]	60 to 600
N#Cc1nccc(NC2CCN(Cc3ccc(-n4c(-c5cccnc5N)nc5cccnc54)cc3)CC2)n1 [Example 92, 4-((1-(4-(2-(2-Aminopyridin-3-yl)-3H-imidazo[4,5-b]pyridin-3-yl)benzyl)piperidin-4-yl)amino)pyrimidine-2-carbonitrile]	15 to 60
N#Cc1cncc(NC2CCN(Cc3ccc(-n4c(-c5cccnc5N)nc5ccc(-c6ccccc6)nc54)cc3)CC2)c1 [Example 93, 5-((1-(4-(2-(2-Aminopyridin-3-yl)-5-phenyl-3H-imidazo[4,5-b]pyridin-3-yl)benzyl)piperidin-4-yl)amino)nicotinonitrile]	60 to 600
N#Cc1ncc(NCc2ccc(-n3c(-c4cccnc4N)nc4cccnc43)cc2)cn1 [Example 95, 5-((4-(2-(2-Aminopyridin-3-yl)-3H-imidazo[4,5-b]pyridin-3-yl)benzyl)amino)pyrimidine-2-carbonitrile]	600 to 10000
N#Cc1ncccc1C(=O)NCc1ccc(-n2c(-c3cccnc3N)nc3cccnc32)cc1 [Example 98, N-(4-(2-(2-Aminopyridin-3-yl)-3H-imidazo[4,5-b]pyridin-3-yl)benzyl)-2-cyanonicotinamide]	600 to 10000
N#Cc1cnccc1C(=O)NCc1ccc(-n2c(-c3cccnc3N)nc3cccnc32)cc1 [Example 99, N-(4-(2-(2-Aminopyridin-3-yl)-3H-imidazo[4,5-b]pyridin-3-yl)benzyl)-3-cyanoisonicotinamide]	600 to 10000

The remaining lines, values ahead:

IC50 [nM]	SMILES
< 15	N#Cc1ccnc(N2CCN(Cc3ccc(-n4c(-c5cccnc5N)nc5ccc(-c6ccccc6)nc54)cc3)CC2)n1 [Example 68, 2-(4-(4-(2-(2-Aminopyridin-3-yl)-5-phenyl-3H-imidazo[4,5-b]pyridin-3-yl)benzyl)piperazin-1-yl)pyrimidine-4-carbonitrile]
60 to 600	N#Cc1nnccc1C(=O)N1CCN(Cc2ccc(-n3c(-c4cccnc4N)nc4ccc(-c5ccccc5)nc43)cc2)CC1 [Example 70, 4-(4-(4-(2-(2-Aminopyridin-3-yl)-5-phenyl-3H-imidazo[4,5-b]pyridin-3-yl)benzyl)piperazine-1-carbonyl)pyridazine-3-carbonitrile]
600 to 10000	N#Cc1cncnc1C(=O)N1CCN(Cc2ccc(-n3c(-c4cccnc4N)nc4ccc(-c5ccccc5)nc43)cc2)CC1 [Example 72, 4-(4-(4-(2-(2-Aminopyridin-3-yl)-5-phenyl-3H-imidazo[4,5-b]pyridin-3-yl)benzyl)piperazine-1-carbonyl)pyrimidine-5-carbonitrile]
< 15	N#Cc1cc(N2CCN(Cc3ccc(-n4c(-c5cccnc5N)nc5ccc(-c6ccccc6)nc54)cc3)CC2)ncn1 [Example 78, 6-(4-(4-(2-(2-Aminopyridin-3-yl)-5-phenyl-3H-imidazo[4,5-b]pyridin-3-yl)benzyl)piperazin-1-yl)pyrimidine-4-carbonitrile]
15 to 60	N#Cc1cc(N2CCN(Cc3ccc(-n4c(-c5cccnc5N)nc5ccc(-c6ccccc6)nc54)cc3)CC2)ccn1 [Example 82, 4-(4-(4-(2-(2-Aminopyridin-3-yl)-5-phenyl-3H-imidazo[4,5-b]pyridin-3-yl)benzyl)piperazin-1-yl)picolinonitrile]
60 to 600	N#Cc1cccc(N2CCN(Cc3ccc(-n4c(-c5cccnc5N)nc5ccc(-c6ccccc6)nc54)cc3)CC2)n1 [Example 83, 6-(4-(4-(2-(2-Aminopyridin-3-yl)-5-phenyl-3H-imidazo[4,5-b]pyridin-3-yl)benzyl)piperazin-1-yl)picolinonitrile]
15 to 60	N#Cc1ccc(NC2CCN(Cc3ccc(-n4c(-c5cccnc5N)nc5ccc(-c6ccccc6)nc54)cc3)CC2)cn1 [Example 84, 5-((1-(4-(2-(2-Aminopyridin-3-yl)-5-phenyl-3H-imidazo[4,5-b]pyridin-3-yl)benzyl)piperidin-4-yl)amino)picolinonitrile]
< 15	N#Cc1cc(NC2CCN(Cc3ccc(-n4c(-c5cccnc5N)nc5ccc(-c6ccccc6)nc54)cc3)CC2)ccn1 [Example 85, 4-((1-(4-(2-(2-Aminopyridin-3-yl)-5-phenyl-3H-imidazo[4,5-b]pyridin-3-yl)benzyl)piperidin-4-yl)amino)picolinonitrile]
60 to 600	N#Cc1cccc(NC2CCN(Cc3ccc(-n4c(-c5cccnc5N)nc5ccc(-c6ccccc6)nc54)cc3)CC2)n1 [Example 86, 6-((1-(4-(2-(2-Aminopyridin-3-yl)-5-phenyl-3H-imidazo[4,5-b]pyridin-3-yl)benzyl)piperidin-4-yl)amino)picolinonitrile]
60 to 600	N#Cc1ccnc(NC2CCN(Cc3ccc(-n4c(-c5cccnc5N)nc5ccc(-c6ccccc6)nc54)cc3)CC2)c1 [Example 87, 2-((1-(4-(2-(2-Aminopyridin-3-yl)-5-phenyl-3H-imidazo[4,5-b]pyridin-3-yl)benzyl)piperidin-4-yl)amino)isonicotinonitrile]
< 15	N#Cc1nccc(NC2CCN(Cc3ccc(-n4c(-c5cccnc5N)nc5ccc(-c6ccccc6)nc54)cc3)CC2)n1 [Example 88, 4-((1-(4-(2-(2-Aminopyridin-3-yl)-5-phenyl-3H-imidazo[4,5-b]pyridin-3-yl)benzyl)piperidin-4-yl)amino)pyrimidine-2-carbonitrile]
< 15	N#Cc1cncc(NC2CCN(Cc3ccc(-n4c(-c5cccnc5N)nc5ccc(-c6ccccc6)nc54)cc3)CC2)n1 [Example 89, 6-((1-(4-(2-(2-Aminopyridin-3-yl)-5-phenyl-3H-imidazo[4,5-b]pyridin-3-yl)benzyl)piperidin-4-yl)amino)pyrazine-2-carbonitrile]
< 15	N#Cc1ccnc(NC2CCN(Cc3ccc(-n4c(-c5cccnc5N)nc5ccc(-c6ccccc6)nc54)cc3)CC2)n1 [Example 90, 2-((1-(4-(2-(2-Aminopyridin-3-yl)-5-phenyl-3H-imidazo[4,5-b]pyridin-3-yl)benzyl)piperidin-4-yl)amino)pyrimidine-4-carbonitrile]
< 15	N#Cc1cc(NC2CCN(Cc3ccc(-n4c(-c5cccnc5N)nc5ccc(-c6ccccc6)nc54)cc3)CC2)ncn1 [Example 91, 6-((1-(4-(2-(2-Aminopyridin-3-yl)-5-phenyl-3H-imidazo[4,5-b]pyridin-3-yl)benzyl)piperidin-4-yl)amino)pyrimidine-4-carbonitrile]
60 to 600	N#Cc1ccc(N2CCN(Cc3ccc(-n4c(-c5cccnc5N)nc5ccc(-c6ccccc6)nc54)cc3)CC2)cn1 [Example 94, 5-(4-(4-(2-(2-Aminopyridin-3-yl)-5-phenyl-3H-imidazo[4,5-b]pyridin-3-yl)benzyl)piperazin-1-yl)picolinonitrile]
15 to 60	N#Cc1ncc(N2CCN(Cc3ccc(-n4c(-c5cccnc5N)nc5ccc(-c6ccccc6)nc54)cc3)CC2)cn1 [Example 97, 5-(4-(4-(2-(2-aminopyridin-3-yl)-5-phenyl-3H-imidazo[4,5-b]pyridin-3-yl)benzyl)piperazin-1-yl)pyrimidine-2-carbonitrile]
